Laboratory results taken from patent publication US6235717A, “Pharmaceutical compounds” (Glaxo Wellcome Inc., priority 1993, dated 2001).
pIC50: −log10 of the molar value. Starred links: 1 amine or outer side, 2 acyl side, 3 side chain; linkers in the order of their positions; H or OH if unused. Non-standard residues stand in square brackets, D forms with d. Residues, ends and D or L forms follow the SMILES beside them. ξ: configuration not given here. *: point of attachment. Phe(4-Br) = N[C@@H](Cc1ccc(Br)cc1)C(=O)O; Phe(4-Cl) = N[C@@H](Cc1ccc(Cl)cc1)C(=O)O; Phe(4-I) = N[C@@H](Cc1ccc(I)cc1)C(=O)O; 1Nal = N[C@@H](Cc1cccc2ccccc12)C(=O)O; Bta = N[C@@H](Cc1csc2ccccc12)C(=O)O; ξW = NC(Cc1c[nH]c2ccccc12)C(=O)O; Suc = O=C(CCC(=O)[*:2])[*:1]; Cbz = O=C(OCc1ccccc1)*; Bn = c1ccc(C*)cc1

Target: endothelin converting enzyme (ECE) (Sus scrofa, UniProt F1SU04)
Test: "ECE" assay with porcine aortic "ECE" prep, fluorogenic substrate Suc-Ile-Ile-Trp-MCA
Type: biochemical
Conditions: pH 7
Method: IC50 values were determined as follows:
Porcine Aortic "ECE" Prep
Porcine aortas (22-25) were obtained fresh from a local slaughterhouse and delivered in cold PBS on ice. The aortas were cut open, rinsed with cold PBS and the endothelial cell layer scraped into cold PBS using a scalpel. The endothelial cells were pelleted by centrifugation, rinsed once with cold PBS, and repelleted. The pellet was lysed by addition of 10 volumes of 10 mM Tris-HCl, pH 7.0, containing protease inhibitors and DTS, followed by brief sonication and homogenization. The lysate was centrifuged at 100,000 g for 1 hour and the supernatant applied to a MONOQ FPLC anion exchange column equilibrated in 10 mM Tris-HCl, pH 7.0 (buffer A) which was then developed with an increasing gradient of NaCl in buffer A. The active fractions were aliquoted and stored at -70° C.
The ECE assay was performed in 96-well microplates in a total volume of 200μ/well. The assay cocktail contains 100 mM Tris-HCl, pH 7.0, 20 mM CaCl2, 80 μM substrate (Suc-Ile-Ile-Trp-MCA), enzyme and test compounds. The test compounds were preincubated with the enzyme for 15-20 minutes before initiation of the assay by addition of the substrate. The assay was incubated overnight at 37° C. and the fluorescence intensity caused by the release of AMC was determined using a fluorescence microplate reader (EX360 nm/EM460 nm). IC50 values for compounds were determined by constructing concentration-effect curves for the inhibition of enzyme activity. Concentrations on the linear portion of the inhibition curve were used to determine the IC50 utilizing a Hill plot.

Sequence of endothelin converting enzyme (ECE) (F1SU04 entry or part of it): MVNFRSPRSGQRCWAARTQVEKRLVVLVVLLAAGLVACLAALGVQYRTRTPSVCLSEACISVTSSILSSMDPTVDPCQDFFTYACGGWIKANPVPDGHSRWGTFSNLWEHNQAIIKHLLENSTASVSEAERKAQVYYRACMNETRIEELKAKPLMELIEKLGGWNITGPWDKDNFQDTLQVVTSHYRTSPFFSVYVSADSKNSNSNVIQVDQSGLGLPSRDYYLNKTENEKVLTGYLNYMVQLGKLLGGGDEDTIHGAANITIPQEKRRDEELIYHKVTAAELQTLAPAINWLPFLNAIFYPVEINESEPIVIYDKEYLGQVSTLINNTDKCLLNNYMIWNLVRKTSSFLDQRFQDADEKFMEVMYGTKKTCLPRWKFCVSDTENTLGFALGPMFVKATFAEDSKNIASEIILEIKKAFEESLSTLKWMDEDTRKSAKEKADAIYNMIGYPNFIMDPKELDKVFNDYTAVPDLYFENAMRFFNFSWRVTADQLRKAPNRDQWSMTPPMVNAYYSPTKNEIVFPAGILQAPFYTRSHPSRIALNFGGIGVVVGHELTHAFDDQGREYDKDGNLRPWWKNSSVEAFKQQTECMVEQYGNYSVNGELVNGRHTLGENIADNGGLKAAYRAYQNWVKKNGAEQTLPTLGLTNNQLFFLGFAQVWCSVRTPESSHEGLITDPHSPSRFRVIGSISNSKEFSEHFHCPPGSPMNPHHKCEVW

Row | Structure (SMILES) | pIC50
1 | O=C[C@H](Cc1c[nH]c2ccccc12)NC(=O)[C@H](Cc1cccc2ccccc12)NC(=O)[C@H](Cc1ccc(Br)cc1)NC(=O)OCc1ccccc1 [Example 37, N-Benzyloxycarbonyl-S-p-bromophenylalanyl-S-1'naphthylalanyl-1-S-formyl-1-(1H-indol-3-yl-methyl)-methylamide] (Cbz-[Phe(4-Br)]-[1Nal]-Trp-aldehyde) | 8.15
2 | O=C[C@H](Cc1c[nH]c2ccccc12)NC(=O)[C@H](Cc1cccc2ccccc12)NC(=O)[C@H](Cc1ccc(I)cc1)NC(=O)OCc1ccccc1 [Example 40, N-Benzyloxycarbonyl-S-p-iodophenylalanyl-S-1'naphthylalanyl-1-S-formyl-1-(1H-indol-3-yl-methyl)-methylamide] (Cbz-[Phe(4-I)]-[1Nal]-Trp-aldehyde) | 8.00

Same assay, conditions: porcine aortic endothelial cell ECE prep; 80 μM Suc-Ile-Ile-Trp-MCA; 15-20 min preincubation; overnight at 37° C.; pH 7.0; AMC fluorescence

Row | Structure (SMILES) | pIC50
3 | CC[C@H](C)[C@H](NC(=O)OCc1ccccc1)C(=O)N[C@H](C(=O)N[C@H](C=O)Cc1ccccc1)[C@@H](C)CC [Example 16, N-Benzyloxycarbonyl-S-isoleucyl-S-isoleucine 1-S-formyl-2-phenyl-ethylamide] (Cbz-Ile-Ile-Phe-aldehyde) | 6.40
4 | CC[C@H](C)[C@H](NC(=O)OCc1ccccc1)C(=O)N[C@H](C(=O)N[C@H](C=O)CC(C)C)[C@@H](C)CC [Example 17, N-Benzyloxycarbonyl-S-isoleucyl-S-isoleucine 1-S-formyl-3-methyl-butylamide] (Cbz-Ile-Ile-Leu-aldehyde) | 5.36
5 | CC[C@H](C)[C@H](NC(=O)OCc1ccccc1)C(=O)N[C@H](C(=O)N[C@H](C=O)Cc1csc2ccccc12)[C@@H](C)CC [Example 18, N-Benzyloxycarbonyl-S-isoleucyl-S-isoleucine 1-S-formyl-2-(benzo-thien-3-yl)ethylamide] (Cbz-Ile-Ile-[Bta]-aldehyde) | 6.22
6 | CC[C@H](C)[C@H](NC(=O)[C@H](Cc1ccccc1)NC(=O)OCc1ccccc1)C(=O)N[C@H](C=O)[C@@H](C)CC [Example 20, N-Benzyloxycarbonyl-S-phenylalanyl-S-isoleucyl-1-S-formyl-1-(S)-1-methylpropylmethylamide] (Cbz-Phe-Ile-Ile-aldehyde) | 5.96
7 | CCC(C)C(C=O)NC(=O)C(NC(=O)C(NC(=O)OCc1ccccc1)C(C)CC)C(C)CC [Example 22, N-Benzyloxycarbonyl-S-isoleucyl-S-isoleucyl-1-S-formyl-1-(S)-1-methylpropyl)-methylamide] (Cbz-Ile-Ile-Ile-aldehyde; configuration not given here) | 5.40
8 | CC[C@H](C)[C@H](NC(=O)OCc1ccccc1)C(=O)N[C@H](C(=O)N[C@H](C=O)Cc1ccc(O)cc1)[C@@H](C)CC [Example 33, N-Benzyloxycarbonyl-S-isoleucyl-S-isoleucyl-1-S-formyl-1-(4-hydroxy-benzyl)-methylamide] (Cbz-Ile-Ile-Tyr-aldehyde) | 6.70
9 | O=C[C@H](Cc1ccc(Cl)cc1)NC(=O)[C@H](Cc1ccc(OCc2ccccc2)cc1)NC(=O)[C@H](Cc1cccc2ccccc12)NC(=O)OCc1ccccc1 [Example 39, N-Benzyloxycarbonyl-S-1'naphthylalanyl-S-(O-benzyl)tyrosyl-1-S-formyl-1-(4-chlorophenylmethyl)-methyloamide] (Cbz-[1Nal]-Tyr(Bn)-[Phe(4-Cl)]-aldehyde) | 7.82
10 | C#CC(=O)C(Cc1c[nH]c2ccccc12)NC(=O)[C@@H](NC(=O)[C@@H](NC(=O)OCc1ccccc1)[C@@H](C)CC)[C@@H](C)CC (stereo partly drawn) [Example 49, N-Benzyloxycarbonyl-L-isoleucyl-L-isoleucine-L_N-[1[2-propynoyl]2-(1H-indol-3-yl)ethyl]amide] | 5.00
11 | CC[C@H](C)[C@H](NC(=O)OCc1ccccc1)C(=O)N[C@H](C(=O)NC(C=NNC(N)=O)Cc1c[nH]c2ccccc12)[C@@H](C)CC (stereo partly drawn) [Example 56, N-Benzyloxycarbonyl-L-isoleucyl-L-isoleucine-L-N-[1[semicarbazonomethyl]2-(1H-indol-3-yl)ethyl]amide] | 5.00
12 | CC[C@H](C)[C@H](NC(=O)CC(c1ccccc1)c1ccccc1)C(=O)N[C@H](C(=O)NC(C=O)Cc1c[nH]c2ccccc12)[C@@H](C)CC (stereo partly drawn) [Example 58] | 7.00
13 | CC[C@H](C)[C@H](NC(C)=O)C(=O)N[C@H](C(=O)NC(C=O)Cc1c[nH]c2ccccc12)[C@@H](C)CC (stereo partly drawn) [Example 60] (Ac-Ile-Ile-[ξW]-aldehyde) | 6.00
14 | CC[C@H](C)[C@H](NC(=O)CCC(=O)O)C(=O)N[C@H](C(=O)N[C@H](C=O)Cc1c[nH]c2ccccc12)[C@@H](C)CC [Example 61] (Suc-Ile-Ile-Trp-aldehyde) | 6.10

Continued, values first:

Row | pIC50 | Structure (SMILES)
15 | 6.70 | CC[C@H](C)[C@H](NC(=O)OCc1ccccc1)C(=O)N[C@H](C(=O)N[C@H](C=O)Cc1c[nH]c2ccccc12)[C@@H](C)CC [Example 15, N-Benzyloxycarbonyl-S-isoleucyl-S-isoleucine 1-S-formyl-2-(1H-indol-3-yl]ethylamide] (Cbz-Ile-Ile-Trp-aldehyde)
16 | 8.00 | O=C[C@H](Cc1c[nH]c2ccccc12)NC(=O)[C@H](Cc1ccc(OCc2ccccc2)cc1)NC(=O)[C@H](Cc1ccc(Br)cc1)NC(=O)OCc1ccccc1 [Example 19, N-Benzyloxycarbonyl-S-p-bromophenylalnyl-S-(O-benzyl)tyrosyl-1-S-formyl-1-(1H-indol-3-yl-methyl)-methylamide] (Cbz-[Phe(4-Br)]-Tyr(Bn)-Trp-aldehyde)
17 | 5.92 | CC[C@H](C)[C@@H](C=O)NC(=O)[C@H](Cc1ccccc1)NC(=O)[C@H](C)NC(=O)OCc1ccccc1 [Example 21, N-Bezyloxycarbonyl-S-alanyl-S-phenylalanyl-1-S-formyl-1-(2-S-butyl)-methylamide] (Cbz-Ala-Phe-Ile-aldehyde)
18 | 5.82 | CC[C@H](C)[C@H](NC(=O)[C@@H](NC(=O)OCc1ccccc1)C(C)C)C(=O)NC(C=O)Cc1c[nH]c2ccccc12 (stereo partly drawn) [Example 24] (Cbz-Val-Ile-[ξW]-aldehyde)
19 | 6.52 | CC[C@H](C)[C@H](NC(=O)[C@H](Cc1ccccc1)NC(=O)OCc1ccccc1)C(=O)N[C@H](C=O)Cc1c[nH]c2ccccc12 [Example 25, N-Benzyloxycarbonyl-S-phenylalanyl-S-isoleucyl-1-S-formyl-1-(1H-indol-3-yl-methyl)-methylamide] (Cbz-Phe-Ile-Trp-aldehyde)
20 | 5.82 | C[C@H](NC(=O)OCc1ccccc1)C(=O)N[C@@H](Cc1ccccc1)C(=O)N[C@H](C=O)Cc1c[nH]c2ccccc12 [Example 26, N-Benzyloxycarbonyl-S-alanyl-S-phenylalanyl-1-S-formyl-1-(1H-indol-3-yl-methyl)-methylamide] (Cbz-Ala-Phe-Trp-aldehyde)
21 | 6.30 | CCC(C)C(NC(=O)OCc1ccccc1)C(=O)NC(Cc1ccccc1)C(=O)NC(C=O)Cc1c[nH]c2ccccc12 (stereo not drawn) [Example 27, N-Benzyloxycarbonyl-S-isoleucyl-S-phenylalanyl-1-S-formyl-1-(1H-indol-3-yl-methyl)-methylamide] (Cbz-Ile-Phe-Trp-aldehyde; configuration not given here)
22 | 6.70 | CCC(C)C(NC(=O)C(CC(C)C)NC(=O)OCc1ccccc1)C(=O)NC(C=O)Cc1c[nH]c2ccccc12 (stereo not drawn) [Example 28] (Cbz-Leu-Ile-Trp-aldehyde; configuration not given here)
23 | 6.70 | CC[C@H](C)[C@H](NC(=O)OCc1ccccc1)C(=O)N[C@H](C(=O)N[C@H](C=O)Cc1c[nH]c2ccccc12)C(C)C [Example 29, N-Benzyloxycarbonyl-S-isoleucyl-S-valyl-1-S-formyl-1-(1H-indol-3-yl-methyl)-methylamide] (Cbz-Ile-Val-Trp-aldehyde)
24 | 6.70 | CC[C@H](C)[C@H](NC(=O)OCc1ccccc1)C(=O)N[C@@H](Cc1c[nH]c2ccccc12)C(=O)N[C@H](C=O)Cc1c[nH]c2ccccc12 [Example 30, N-Benzyloxycarbonyl-S-isoleucyl-S-tryptophanyl-1-S-formyl-1-(1H-indol-3-yl-methyl)-methylamide] (Cbz-Ile-Trp-Trp-aldehyde)
25 | 7.00 | O=CC(Cc1c[nH]c2ccccc12)NC(=O)C(Cc1ccccc1)NC(=O)C(Cc1ccccc1)NC(=O)OCc1ccccc1 (stereo not drawn) [Example 32, N-Benzyloxycarbonyl-S-phenylalanyl-S-phenylalanyl-1-S-formyl-1-(1H-indol-3-yl-methyl)-methylamide] (Cbz-Phe-Phe-Trp-aldehyde; configuration not given here)
26 | 8.10 | O=CC(Cc1c[nH]c2ccccc12)NC(=O)[C@H](Cc1cccc2ccccc12)NC(=O)[C@H](Cc1c[nH]c2ccccc12)NC(=O)OCc1ccccc1 (stereo partly drawn) [Example 34, N-Benzyloxycarbonyl-S-tryptophanyl-S-1'naphthylalanyl-1-S-formyl-1-(1H-indol-3-yl-methyl)-methylamide] (Cbz-Trp-[1Nal]-[ξW]-aldehyde)
27 | 7.52 | O=C[C@H](Cc1c[nH]c2ccccc12)NC(=O)[C@H](Cc1ccc(OCc2ccccc2)cc1)NC(=O)[C@H](Cc1c[nH]c2ccccc12)NC(=O)OCc1ccccc1 [Example 36, N-Benzyloxycarbonyl-S-tryptophanyl-S-(O-benzyl)tyrosyl-1-S-formyl-1-(1H-indol-3-yl-methyl)-methylamide] (Cbz-Trp-Tyr(Bn)-Trp-aldehyde)
